Results on 16 molecules are retold here after PubChem BioAssay (NCI).

Each structure is given as a SMILES string.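 Dose response: 5 concentrations. Exposure: 48 h. Format: 96-well plates. Endpoint: linear interpolation; highest concentration if not reached. Definition used: TGI = concentration required for complete inhibition of growth.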

Test systems include A549 NSCLC; CAKI-1 renal; HCT-15 colon; M14 melanoma; RPMI-8226 leukemia; SF-295 CNS; SN12C renal; SNB-19 CNS; UO-31 renal.
Holding throughout (test): inhibition of tumour cell growth, NCI panel, 48 h

`COc1ccc(C(=O)C(c2ccc(OC)cc2)C2(O)C(=O)Nc3ccc([N+](=O)[O-])cc32)cc1` (stereo not given): the TGI in the test on A549 NSCLC, in the test on CAKI-1 renal, with HCT-15 colon, in the test on M14 melanoma, in the test on RPMI-8226 leukemia and in the test on SF-295 CNS was over 100 µM each time. For the same molecule, the results for the TGI in the test on SN12C renal, in the test on SNB-19 CNS and with UO-31 renal were 24.4 µM, over 100 µM and over 100 µM, respectively.

Turning to `CC1=NNC(=O)C2CCC(=O)N12` (stereo not given), the TGI in the test with A549 NSCLC, with CAKI-1 renal, with HCT-15 colon, in the test on M14 melanoma, in the test on RPMI-8226 leukemia and in the test on SN12C renal was over 100 µM in each case. The TGI in the test on SNB-19 CNS and with UO-31 renal was over 100 µM throughout.

With `CN(C)c1nc2ccccc2[nH]1`, the TGI with A549 NSCLC, in the test on CAKI-1 renal, with HCT-15 colon, with M14 melanoma, in the test on RPMI-8226 leukemia and with SF-295 CNS was over 100 µM throughout. Besides, the TGI in the test on SN12C renal and with UO-31 renal was over 100 µM throughout.

In the case of `Cc1cc(CC(O)c2ccc(Cl)c(Cl)c2)nc(=O)[nH]1` (stereo not given), the TGI is 66 µM with A549 NSCLC; 90 µM with CAKI-1 renal; over 100 µM in the test on HCT-15 colon; over 100 µM in the test on M14 melanoma; over 100 µM in the test on RPMI-8226 leukemia; 90 µM in the test with SF-295 CNS. Moreover, the TGI in the test with SN12C renal, with SNB-19 CNS and with UO-31 renal was over 100 µM throughout.

For `[N-]=[N+]=NC12CC3C4CC5CC3C(C1)C(C5)C4C2`, the TGI with A549 NSCLC, in the test on CAKI-1 renal, in the test on M14 melanoma, in the test with RPMI-8226 leukemia, with SF-295 CNS and in the test with SN12C renal was over 100 µM in each case. The TGI in the test with SNB-19 CNS and with UO-31 renal was over 100 µM throughout.

In the case of `CC1=C(C(=O)Nc2ccccc2)C(c2ccccc2)C(C(=O)Nc2ccccc2)=C(C)N1`, the TGI with A549 NSCLC, in the test with CAKI-1 renal, with HCT-15 colon, with M14 melanoma, with SF-295 CNS and with SN12C renal was over 100 µM each time. Also, the TGI with SNB-19 CNS and with UO-31 renal was over 100 µM in each case.

Take `O=C(/C=C/c1ccccc1O)c1ccccc1O`: the TGI in the test on A549 NSCLC, in the test with CAKI-1 renal, in the test with HCT-15 colon, in the test with RPMI-8226 leukemia, with SF-295 CNS and in the test with SN12C renal was over 100 µM throughout. In addition, the TGI in the test on SNB-19 CNS and with UO-31 renal was over 100 µM each time.

Regarding `S=C(Nc1ccccc1)N(/N=C/C=C/c1ccccc1)c1nnc(-c2ccccc2)c(-c2ccccc2)n1`, the TGI with A549 NSCLC, in the test on CAKI-1 renal, with HCT-15 colon, with M14 melanoma, in the test with RPMI-8226 leukemia and in the test on SF-295 CNS was over 100 µM each time. The TGI with SN12C renal, in the test on SNB-19 CNS and in the test with UO-31 renal was over 100 µM each time.

Take `COc1ccc2c3c([nH]c2c1[N+](=O)[O-])C(C)=NCC3`: the TGI in the test on A549 NSCLC, in the test with CAKI-1 renal, with HCT-15 colon, with M14 melanoma, with RPMI-8226 leukemia and in the test with SF-295 CNS was over 100 µM throughout. In addition, the TGI in the test with SN12C renal, with SNB-19 CNS and with UO-31 renal was over 100 µM throughout.

Take `CCCN=C(N)NC#N`: the TGI in the test with A549 NSCLC was over 100 µM; with CAKI-1 renal it was over 100 µM; in the test with HCT-15 colon, 38.2 µM; with M14 melanoma, over 100 µM; with RPMI-8226 leukemia, over 100 µM; in the test with SF-295 CNS it was over 100 µM. In addition, the TGI with SN12C renal, in the test with SNB-19 CNS and in the test with UO-31 renal was over 100 µM in each case.

Turning to `Cc1ccc(NC(=O)C(=O)C(C(=O)c2ccc3ccccc3c2)C2OC(=O)c3ccccc32)cc1C` (stereo not given), the TGI in the test on A549 NSCLC is 82.4 µM; with CAKI-1 renal, 43.7 µM; with HCT-15 colon it was 24.2 µM; in the test on M14 melanoma, 32.2 µM; in the test with RPMI-8226 leukemia, 37.5 µM; in the test on SN12C renal, 44.8 µM. Moreover, the TGI is 21.3 µM in the test on SNB-19 CNS and 27.6 µM in the test with UO-31 renal.

Take `Cc1ccc(Cc2c(=O)[nH]nc3ccccc23)cc1`: the TGI in the test with A549 NSCLC, in the test with CAKI-1 renal, in the test with HCT-15 colon, with M14 melanoma, in the test with RPMI-8226 leukemia and with SF-295 CNS was over 100 µM throughout. Besides, the TGI with SN12C renal, in the test on SNB-19 CNS and with UO-31 renal was over 100 µM in each case.

Regarding `CC(C)N(C(=O)C12C3C4C5(C#N)C3C1(C#N)C5C42I)C(C)C` (stereo not given), the TGI with A549 NSCLC is over 100 µM; in the test with CAKI-1 renal it was over 100 µM; in the test on HCT-15 colon, over 100 µM; in the test on M14 melanoma, over 100 µM; in the test with RPMI-8226 leukemia, over 66.6 µM; in the test on SF-295 CNS, over 100 µM. For the same molecule, the TGI with SN12C renal, in the test with SNB-19 CNS and in the test with UO-31 renal was over 100 µM throughout.

For `COc1cc(C(Cc2ccccc2)NC(C)=O)oc(=O)c1` (stereo not given), the TGI with A549 NSCLC, in the test on CAKI-1 renal, in the test on HCT-15 colon, with M14 melanoma, with RPMI-8226 leukemia and in the test with SF-295 CNS was over 100 µM throughout. Further, the TGI in the test with SN12C renal, with SNB-19 CNS and with UO-31 renal was over 100 µM in each case.

Consider `CC(C)(C)CC(C)(C)c1cc2c(O)c(c1)Cc1cc(C(C)(C)CC(C)(C)C)cc(c1O)Cc1cc(C(C)(C)CC(C)(C)C)cc(c1O)Cc1cc(C(C)(C)CC(C)(C)C)cc(c1O)C2`, for which the TGI with A549 NSCLC, with HCT-15 colon, in the test on M14 melanoma, in the test on RPMI-8226 leukemia, in the test on SF-295 CNS and in the test with SN12C renal was over 100 µM throughout. The TGI in the test with SNB-19 CNS and in the test with UO-31 renal was over 100 µM each time.

For the molecule `COc1cccc(/C=C/c2cc(OC)c(OC)c(OC)c2)c1`, the TGI with A549 NSCLC, in the test on HCT-15 colon, in the test on M14 melanoma, with RPMI-8226 leukemia, in the test with SN12C renal and with SNB-19 CNS was over 100 µM throughout. The same molecule displayed a TGI in the test with UO-31 renal of over 100 µM.
